In patent US20160251403A1, “PEPTIDE COMBINATIONS AND USES THEREOF IN TREATING DUST MITE ALLERGY” (ALK-ABELLO A/S, priority 2013, published 2016):
No end group written: not given here.

Legend:
[1] = Solubility of peptides in aqueous solutions at different pH (visual inspection, OD, HPLC); assay type: physicochemical; conditions: for Solubility at pH 7: evaluated by visual inspection
Source text: This example describes modifications of parent peptides to improve the aqueous solubility, in particular to increase the solubility in an aqueous solution having pH in a physiologically acceptable range, e.g. from 6 to 8. Solubility is closely related to the ratio between hydrophilic and hydrophobic amino acid residues and the net charge state of the peptide. Peptides have zero net charge at pH=pI, and would be expected to show the lowest solubility at this pH. […] The solubility of these peptides was increased at pH values outside the physiological range (data not shown).
Peptides were tested for their ability to dissolve in aqueous solutions at different pH values. In short, each of the peptides were dissolved in water (pH about 5-6), hydrochloride solution at pH 2 (10 mM HCl), acetate buffer with pH 5 (20 mM acetate and 140 mM sodium chloride), phosphate buffer with pH 7 (20 mM phosphate and 140 mM sodium chloride) or bistrispropate buffer with pH 9 (20 mM bitrispropane and 140 mM sodium chloride, respectively, to produce a final molar concentration of the peptide of about 0.25 mM or 1 mM. Optionally, about 20% DMSO may be part of the solution. For comparison reasons, peptides were also dissolved in acetonitrile or DMSO. The solutions were inspected visually before and after centrifugation for turbidity, presence of particles/aggregates. In addition, presence of turbidity/particles/aggregates were detected by optical density (OD), but might also be detected by size-exclusion chromatography. Sub-visual particles may also be detected by dynamic light scattering (DLS) analysis. The solubility and stability of each peptide were also investigated using HPLC, e.g. RP-HPLC. For example, each of the solutions were injected onto the HPLC and the peak height or peak area of each of the peptides were compared to the corresponding peptide of a chromatogram of peptides dissolved in acetonitrile or DMSO—as peptides were assumed to be fully dissolved and stable in these solvents.

[2] = biological target: DRB1_1302 (Homo sapiens, UniProt P01903+P01911, A100E/A169T/K41T/L162R/M171V/P40S/Q125H/Q178H/Q39Y/Q99D/R42S/S66N/T262R/V115G/W38E/Y61H); assay: Competitive MHC class II binding assay, DRB1_1302;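 further: purified HLA class II protein incubated two to four days with a radiolabeled reference binder and test peptide at six concentrations over a 100,000-fold range, complex-bound radioactivity counted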
[3] = biological target: DRB3_0101 (Homo sapiens, UniProt P01903+P79483); assay: Competitive MHC class II binding assay, DRB3_0101
[4] = biological target: DQA10501-DQB10201 (Homo sapiens, UniProt P01909+P01920, A45G/A70V/D89A/E106A/E77G/E98D/H199R/L107V/N214S/P84L/P87L/T103K/T109R/T172A/T60S/V78E/V99I/Y58L/Y62S/Y69I/Y79F); assay: Competitive MHC class II binding assay, DQA10501-DQB10201
[5] = biological target: DRB3_0202 (Homo sapiens, UniProt P01903+P79483, A212P/D57E/F66Y/L67A/R103Q/R218S/R40L/S89Y/T80R/V86D/Y55F/Y59H); assay: Competitive MHC class II binding assay, DRB3_0202
[6] = biological target: DRB4_0101 (Homo sapiens, UniProt P01903+P13762, G164S); assay: Competitive MHC class II binding assay, DRB4_0101
[7] = biological target: DRB1_0802 (Homo sapiens, UniProt P01903+P01911, A100R/A103L/A169T/F76Y/H45Y/I96F/K41T/L162R/M171V/P40S/Q125H/Q178H/Q39Y/Q99D/R218S/R42G/S66Y/V115G/W38E); assay: Competitive MHC class II binding assay, DRB1_0802
[8] = biological target: DRB1_0101 (Homo sapiens, UniProt P01903+P01911, A100R/D57E/F55L/F60I/F76Y/I96L/L162R/M171V/P40L/Q125E/R42F/V115G/Y59C); assay: Competitive MHC class II binding assay, DRB1_0101;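 further: competition against a radiolabeled probe peptide (0.1–1 nM) for purified HLA class II protein over 2–4 days, bound counts read after antibody capture, six competitor levels across 100,000-fold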
[9] = biological target: DRB1_0401 (Homo sapiens, UniProt P01903+P01911, A100K/A169T/F76Y/I96L/K127E/L162R/M171V/N62H/P40V/Q125Y/R42H/S133A/S149N/S66Y/V115G/V209L/W38E); assay: Competitive MHC class II binding assay, DRB1_0401
[10] = biological target: DRB1_0701 (Homo sapiens, UniProt P01903+P01911, A100R/A102G/A103Q/D57E/D86V/E43K/F76Y/K127E/L162R/M171V/P40G/Q125H/Q99D/R33Q/R42Y/R54Q/S133A/S66F/T210M/V115G/Y107V/Y59L/Y89S); assay: Competitive MHC class II binding assay, DRB1_0701;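 further: displacement of a radiolabeled reference peptide from purified HLA class II protein, with complex-bound radioactivity counted after 2–4 days of incubation and six concentrations spanning a 100,000-fold range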
[11] = biological target: DRB1_0405 (Homo sapiens, UniProt P01903+P01911, A100R/A169T/D86S/F76Y/I96L/K127E/L162R/M171V/N62H/P40V/Q125Y/R42H/S133A/S149N/S66Y/V115G/V209L/W38E); assay: Competitive MHC class II binding assay, DRB1_0405
[12] = biological target: DRB1_0901 (Homo sapiens, UniProt P01903+P01911, A100R/A103E/D57H/D86V/F55Y/F60I/F76Y/I96F/K127E/L162R/M171V/P40D/Q125H/Q99R/R33Q/R42F/S133A/S66N/T210M/V115G/W38K/Y107V/Y59G/Y89S); assay: Competitive MHC class II binding assay, DRB1_0901;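 further: displacement of a radiolabeled probe peptide from purified HLA class II protein, bound counts read after two to four days incubation, six concentrations spanning 100,000-fold, unlabeled probe as reference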
[13] = biological target: DRB1_1501 (Homo sapiens, UniProt P01903+P01911); assay: Competitive MHC class II binding assay, DRB1_1501
[14] = biological target: DQA10102-DQB10602; assay: Competitive MHC class II binding assay, DQA10102-DQB10602; conditions: read-out: HLA-DQA10102-DQB10602; positive binding at cutoff 1000 nM
[15] = biological target: DQA10501-DQB10301 (Homo sapiens, UniProt P01909+P01920); assay: Competitive MHC class II binding assay, DQA10501-DQB10301
[16] = biological target: DRB5_0101 (Homo sapiens, UniProt P01903+Q30154); assay: Competitive MHC class II binding assay, DRB5_0101

For RREALAQTHSAIAVIIGIKDLDA [Peptide 143], the “Solubility at pH 7 (visual inspection)” value [1] was “Slight turbid”.

With RIEYIQQNGVVEERSYPYVARR [Peptide 140] the “Solubility at pH 7 (visual inspection)” value [1] was “Clear”.

In the case of RRIEYIQQNGVVEERSYPYVARRR [Peptide 142], the “Solubility at pH 7 (visual inspection)” value [1] is reported as “Clear”.

With KIREALAQTHSAIAVIIGIKDLDA-NH2 [pep-150] the “Solubility at pH 7” value ([1]; Table 11c) was “Clear”.

With RRRRHAVNIVGYSNAQGVDYWIVR [Peptide 132] the “Solubility at pH 7 (visual inspection)” value [1] was “Slight turbid”.

For HRGKPFQLEAVFEANQNTKT-NH2 [pep-151], the “Solubility at pH 7” value ([1]; Table 11c) was “Clear”.

In the case of TNASSINGNAPAEIDLRQM [pep-041], the IC50 [2] is reported as under 1 µM, the IC50 [3] is reported as under 1 µM and the IC50 [4] is reported as under 1 µM. It also gave an IC50 [5] of under 1 µM.

“ESVKYVQSNGGAI [HDM201, reference compound]” gave an IC50 [6] of under 1 µM, an IC50 [2] of under 1 µM and an IC50 [7] of under 1 µM. It also gave an IC50 [3] of under 1 µM, an IC50 [8] of under 1 µM and an IC50 [9] of under 1 µM. It also gave an IC50 [10] of under 1 µM, an IC50 [11] of under 1 µM and an IC50 [12] of under 1 µM. The IC50 [13] was under 1 µM.

For RREALAQTHSAIAVIIGIKDLDAR [Peptide 144], the “Solubility at pH 7 (visual inspection)” value [1] was “Clear”.

In the case of GSHGSDPSIIHRGKPFTLEA [pep-102], the IC50 [6] is reported as under 1 µM, the IC50 [14] is reported as under 1 µM and the IC50 [8] is reported as under 1 µM. The IC50 [10] was under 1 µM, the IC50 [12] was under 1 µM and the IC50 [13] was under 1 µM. For the same compound, the IC50 [15] was under 1 µM.

Work on `CC[C@H](C)[C@H](NC(=O)[C@@H](NC(=O)[C@@H](N)CO)[C@@H](C)CC)C(=O)N[C@@H](Cc1c[nH]cn1)C(=O)N[C@@H](CCCNC(=N)N)C(=O)NCC(=O)N[C@@H](CCCCN)C(=O)N1CCC[C@H]1C(=O)N[C@@H](Cc1ccccc1)C(=O)N[C@@H](CCC(N)=O)C(=O)N[C@@H](CC(C)C)C(=O)N[C@@H](CCC(=O)O)C(=O)N[C@@H](C)C(=O)O` [pep-002] yielded an IC50 [6] of under 1 µM, an IC50 [2] of under 1 µM and an IC50 [8] of under 1 µM. It also gave an IC50 [10] of under 1 µM, an IC50 [12] of under 1 µM and an IC50 [13] of under 1 µM. It also gave an IC50 [15] of under 1 µM.

In the case of RRIEYIQQNGVVEERSYPYVARR [Peptide 141], the “Solubility at pH 7 (visual inspection)” value [1] is reported as “Clear”.

With “RRREALAQTHSAIAVIIGIKDLDARR [Peptide 146]” the “Solubility at pH 7 (visual inspection)” value [1] was “Clear”.

With `CC[C@H](C)[C@H](NC(=O)CNC(=O)[C@@H](N)CCCNC(=N)N)C(=O)N[C@@H](CCC(=O)O)C(=O)N[C@@H](Cc1ccc(O)cc1)C(=O)N[C@H](C(=O)N[C@@H](CCC(N)=O)C(=O)N[C@@H](Cc1c[nH]cn1)C(=O)N[C@@H](CC(N)=O)C(=O)NCC(=O)N[C@H](C(=O)N[C@H](C(=O)N[C@@H](CCC(N)=O)C(=O)N[C@@H](CCC(=O)O)C(=O)N[C@@H](CO)C(=O)O)C(C)C)C(C)C)[C@@H](C)CC` [pep-025] the IC50 [14] was under 1 µM.

In the case of RRHAVNIVGYSNAQGVDYWIVRR [Peptide 138], the “Solubility at pH 7 (visual inspection)” value [1] is reported as “Slight turbid”.

NHEIKKVLVPGSHGSEPSII [pep-089] gave an IC50 [6] of under 1 µM and an IC50 [7] of under 1 µM.

In the case of RHAVNIVGYSNAQGVDYWIVRR [Peptide 137], the “Solubility at pH 7 (visual inspection)” value [1] is reported as “Clear”.

For RIEYIQQNGVVEERSYPYVAR [Peptide 139], the “Solubility at pH 7 (visual inspection)” value [1] was “Clear”.

With LVGDNGVLASAIATHAKIRD-NH2 [pep-149] the “Solubility at pH 7” value ([1]; Table 11c) was “Clear”.

In the case of RHAVNIVGYSNAQGVDYWIVR [Peptide 136], the “Solubility at pH 7 (visual inspection)” value [1] is reported as “Slight turbid”.

Work on YPPNANKIREALAQTHSAIA [pep-053] yielded an IC50 [6] of under 1 µM, an IC50 [14] of under 1 µM and an IC50 [16] of under 1 µM. It also gave an IC50 [8] of under 1 µM, an IC50 [10] of under 1 µM and an IC50 [12] of under 1 µM. The IC50 [15] was under 1 µM.

For RRREALAQTHSAIAVIIGIKDLDAR [Peptide 145], the “Solubility at pH 7 (visual inspection)” value [1] was “Clear”.

With RRHAVNIVGYSNAQGVDYWIVRRR [Peptide 133] the “Solubility at pH 7 (visual inspection)” value [1] was “Clear”.

In the case of RGIEYIQQNGVVEERSYPYVAR [pep-134], the “Solubility at pH 7” value ([1]; Table 11a) is reported as “Clear”.
